These molecules were tested against T1, PDE5 (bovine aorta) (Bos taurus, UniProt Q28156) (assay: Inhibitory effect on cGMP-PDE (one-step assay), enzyme from bovine aorta). Settings: vs. bovine aorta (footnote 1).
T1 construct: from tissue; host or cells: bovine aorta
Format: biochemical
Description: (§1) CGMP-PDE activity of compounds of the present invention was measured using a one-step assay adapted from Wells et al., Biochim. Biophys. Acta, 384, 430 (1975). The reaction medium contained 50 mM Tris-HCl, pH 7.5, 5 mM magnesium acetate, 250 μg/ml 5′-Nucleotidase, 1 mM EGTA, and 0.15 μM 8-[H^3]-cGMP. Unless otherwise indicated, the enzyme used was a human recombinant PDE5 (ICOS Corp., Bothell, Wash.).
(§2) Compounds of the invention were dissolved in DMSO finally present at 2% in the assay.

IC50 [nM] | SMILES
340 | COc1ccc(C2c3[nH]c4ccccc4c3CC3C(=O)N(Cc4ccccc4)C(=O)CN32)cc1 (stereo not drawn) [Example 2, 2-Benzyl-6-(4-methoxyphenyl)-6,7,12,12a-tetrahydro-pyrazino[1′,2′:1,6]pyrido[3,4-b]indole-1,3-dione]
250 | O=C1CC(=O)N2CCc3c([nH]c4ccccc34)C2C1 (stereo not drawn) [Example 8, 6,7,12,12b-Tetrahydro-1H-indolo[2,3-a]-quinolizine-2,4-dione]
300 | COc1cc2c(cc1O)CN1CCc3c([nH]c4ccccc34)C1C2 (stereo not drawn) [Example 15, 2-Methoxy-5,7,8,13,13b,14-hexahydroindolo-[2′,3′:3,4]pyrido[1,2-b]isoquinolin-3-ol]
900 | O=C1Nc2ccccc2C2c3[nH]c4ccccc4c3CCN12 (stereo not drawn) [Example 16, 7,8,13,13b-Tetrahydro-5H-5,6a,13-triazaindeno-[1,2-c]phenanthren-6-one]
70 | Cn1c2ccccc2c2c(=O)n3c(cc21)-c1[nH]c2ccccc2c1CC3 [Example 18]

These molecules were tested against human recombinant PDE5 (Homo sapiens, UniProt O76074) (assay: Inhibitory effect on cGMP-PDE (one-step assay, 8-[H3]-cGMP), human recombinant PDE5). Settings: not given.
Format: biochemical
Description: The compounds of the present invention were tested for an ability to inhibit PDE5. The ability of a compound to inhibit PDE5 activity is related to the IC50 yalue for the compound, i.e., the concentration of inhibitor required for 50% inhibition of enzyme activity. The IC50 value for compounds of the present invention were determined using recombinant human PDE5. […]
Cell pellets (29 g) were thawed on ice with an equal volume of Lysis Buffer (25 mM Tris HCl, pH 8, 5 mM MgCl2, 0.25 mM DTT, 1 mM benzamidine, and 10 μM ZnSO4). Cells were lysed in a Microfluidizer® (Microfluidics Corp.) using nitrogen at 20,000 psi. The lysate was centrifuged and filtered through 0.45 μm disposable filters. The filtrate was applied to a 150 mL column of Q SEPHAROSE® Fast-Flow (Pharmacia). The column was washed with 1.5 volumes of Buffer A (20 mM Bis-Tris Propane, pH 6.8, 1 mM MgCl2, 0.25 mM DTT, 10 μM ZnSO4) and eluted with a step gradient of 125 mM NaCl in Buffer A followed by a linear gradient of 125–1000 mM NaCl in Buffer A. Active fractions from the linear gradient were applied to a 180 mL hydroxyapatite column in Buffer B (20 mM Bis-Tris Propane (pH 6.8), 1 mM MgCl2, 0.25 mM DTT, 10 μM ZnSO4, and 250 mM KCl). After loading, the column was washed with 2 volumes of Buffer B and eluted with a linear gradient of 0–125 mM potassium phosphate in Buffer B. Active fractions were pooled, precipitated with 60% ammonium sulfate, and resuspended in Buffer C (20 mM Bis-Tris Propane, pH 6.8, 125 mM NaCl, 0.5 mM DTT, and 10 μM ZnSO4). The pool was applied to a 140 mL column of SEPHA-CRYL® S-300 HR and eluted with Buffer C. Active fractions were diluted to 50% glycerol and stored at −20° C.
as §1, §2

IC50 [nM] | SMILES
70 | O=C1COC[C@@H]2Cc3c([nH]c4ccccc34)[C@H](c3ccc4c(c3)OCO4)N12 (racemic) [Example 3, (+−,cis)-10-Benzo[1,3]dioxol-5-yl-5a,6,10,11-tetrahydro-5H-7-oxa-9a,11-diazabenzo[b]-fluoren-9-one]
300 | COc1ccc([C@H]2c3[nH]c4ccccc4c3C[C@H]3COCC(=O)N32)cc1 (racemic) [Example 4, (+−,cis)-10-(4-Methoxyphenyl)-5a,6,10,11-tetrahydro-5H-7-oxa-9a,11-diazabenzo[b]fluoren-9-one]
550 | O=C1CCC(=O)N2[C@H](c3ccc4c(c3)OCO4)c3[nH]c4ccccc4c3C[C@@H]12 (racemic) [Example 6, (+−,trans)-6-Benzo[1,3]dioxol-5-yl-5,6,9,10,11a,12-hexahydroindolo[3,2-b]quinolizine-8,11-dione]
93 | CN1CN2[C@H](c3ccc4c(c3)OCO4)c3[nH]c4ccccc4c3C[C@@H]2C(=O)N1C [Example 1, (5aR,10R)-10-Benzo[1,3]dioxol-5-yl-7,8-dimethyl-5,5a,8,9,10,11-hexahydro-7H-7,8,9a,11-tetraazabenzo[b]floren-6-one]
80 | COC(=O)C1CC(=O)N2[C@H](c3ccc4c(c3)OCO4)c3[nH]c4ccccc4c3C[C@@H]2C1O (stereo partly drawn) [Example 5, (+−,cis)-6-Benzo[1,3]dioxol-5-yl-11-hydroxy-8-oxa-5,6,8,9,11a,12-hexahydroindolo[3,2-b]-guinolizine-10-carboxylic acid methyl ester]
50 | O=C1OCC(=O)N2[C@H](c3ccc4c(c3)OCO4)c3[nH]c4ccccc4c3C[C@H]12 [Example 7, (6R,11aS)-10-Benzo[1,3]dioxol-5-yl-5,5a,10,11-tetrahydro-7-oxa-9a,11-diazabenzo[b]fluorene-6.9-dione]
180 | CC1=CCC(/C=C/C(=O)N2CCc3c([nH]c4ccccc34)C2c2ccc3c(c2)OCO3)CC1 (stereo not drawn) [Example 20]
3 | Cc1cccc2c3c([nH]c12)C(c1ccc2c(c1)OCO2)N(C(=O)/C=C/c1ccc(C(=O)O)cc1)CC3 (stereo not drawn) [Example 21]
26 | O=C(/C=C/c1ccccc1)N1CCc2c([nH]c3cc(Br)ccc23)C1c1ccc2c(c1)OCO2 (stereo not drawn) [Example 22]
690 | O=C(/C=C/c1ccccc1)N1CCc2c([nH]c3cc(-c4ccccc4)ccc23)C1c1ccc2c(c1)OCO2 (stereo not drawn) [Example 23]

Reference: patent US6984641B2, “Carboline derivatives as PDE5 inhibitors” (Lilly Icos LLC., priority 2001, dated 2006)
